{"source": "BigSolDB 2.1"}
{"compound": "c1ccc2c(c1)Cc1ccccc1-2", "values": [{"measurement": "solubility (mole fraction)", "setting": "in ethanol, 278.98 K", "result": 0.00372}, {"measurement": "solubility (mole fraction)", "setting": "in ethanol, 283.99 K", "result": 0.00455}, {"measurement": "solubility (mole fraction)", "setting": "in ethanol, 289.01 K", "result": 0.00554}, {"measurement": "solubility (mole fraction)", "setting": "in ethanol, 294.08 K", "result": 0.00668}, {"measurement": "solubility (mole fraction)", "setting": "in ethanol, 298.35 K", "result": 0.00802}, {"measurement": "solubility (mole fraction)", "setting": "in ethanol, 303.36 K", "result": 0.00973}, {"measurement": "solubility (mole fraction)", "setting": "in ethanol, 308.77 K", "result": 0.0118}, {"measurement": "solubility (mole fraction)", "setting": "in ethanol, 313.17 K", "result": 0.0139}, {"measurement": "solubility (mole fraction)", "setting": "in ethanol, 319.27 K", "result": 0.0177}, {"measurement": "solubility (mole fraction)", "setting": "in ethanol, 324.95 K", "result": 0.0216}, {"measurement": "solubility (mole fraction)", "setting": "in isopropanol, 288.28 K", "result": 0.00221}, {"measurement": "solubility (mole fraction)", "setting": "in isopropanol, 293.69 K", "result": 0.00313}, {"measurement": "solubility (mole fraction)", "setting": "in isopropanol, 299.5 K", "result": 0.00453}, {"measurement": "solubility (mole fraction)", "setting": "in isopropanol, 303.17 K", "result": 0.00565}, {"measurement": "solubility (mole fraction)", "setting": "in isopropanol, 309.06 K", "result": 0.00802}, {"measurement": "solubility (mole fraction)", "setting": "in isopropanol, 313.78 K", "result": 0.0105}, {"measurement": "solubility (mole fraction)", "setting": "in isopropanol, 318.24 K", "result": 0.0135}, {"measurement": "solubility (mole fraction)", "setting": "in isopropanol, 323.17 K", "result": 0.0179}, {"measurement": "solubility (mole fraction)", "setting": "in isopropanol, 328.25 K", "result": 0.0237}, {"measurement": "solubility (mole fraction)", "setting": "in isopropanol, 333.45 K", "result": 0.0314}, {"measurement": "solubility (mole fraction)", "setting": "in n-butanol, 284.27 K", "result": 0.0059}, {"measurement": "solubility (mole fraction)", "setting": "in n-butanol, 288.82 K", "result": 0.00724}, {"measurement": "solubility (mole fraction)", "setting": "in n-butanol, 293.76 K", "result": 0.00906}, {"measurement": "solubility (mole fraction)", "setting": "in n-butanol, 298.88 K", "result": 0.0113}, {"measurement": "solubility (mole fraction)", "setting": "in n-butanol, 304.06 K", "result": 0.0139}, {"measurement": "solubility (mole fraction)", "setting": "in n-butanol, 308.28 K", "result": 0.0168}, {"measurement": "solubility (mole fraction)", "setting": "in n-butanol, 313.93 K", "result": 0.0212}, {"measurement": "solubility (mole fraction)", "setting": "in n-butanol, 318.16 K", "result": 0.0251}, {"measurement": "solubility (mole fraction)", "setting": "in n-butanol, 323.16 K", "result": 0.0304}, {"measurement": "solubility (mole fraction)", "setting": "in n-butanol, 328.25 K", "result": 0.037}, {"measurement": "solubility (mole fraction)", "setting": "in n-butanol, 333.35 K", "result": 0.0458}, {"measurement": "solubility (mole fraction)", "setting": "in n-butanol, 338.35 K", "result": 0.0558}, {"measurement": "solubility (mole fraction)", "setting": "in toluene, 283.27 K", "result": 0.0634}, {"measurement": "solubility (mole fraction)", "setting": "in toluene, 288.77 K", "result": 0.0819}, {"measurement": "solubility (mole fraction)", "setting": "in toluene, 293.72 K", "result": 0.102}, {"measurement": "solubility (mole fraction)", "setting": "in toluene, 298.89 K", "result": 0.13}, {"measurement": "solubility (mole fraction)", "setting": "in toluene, 303.17 K", "result": 0.154}, {"measurement": "solubility (mole fraction)", "setting": "in toluene, 308.81 K", "result": 0.201}, {"measurement": "solubility (mole fraction)", "setting": "in toluene, 314.04 K", "result": 0.252}, {"measurement": "solubility (mole fraction)", "setting": "in toluene, 319.01 K", "result": 0.308}, {"measurement": "solubility (mole fraction)", "setting": "in toluene, 323.28 K", "result": 0.367}]}
